US4661505A, “Leukotriene antagonists” (Eli Lilly and Company, priority 1982, dated 1987)
Where a name gives a salt, the structure may show the parent alone.

Target: T1, LTD4 evoked ileal contractions (Cavia porcellus, UniProt Q2NNR5)
T1 construct: A section of terminal ileum was removed, the lumen cleaned, and the tissue divided into 2.5 cm. segments; from tissue; host or cells: terminal ileum of male Hartley guinea pigs
T1 sequence (Q2NNR5 1-340): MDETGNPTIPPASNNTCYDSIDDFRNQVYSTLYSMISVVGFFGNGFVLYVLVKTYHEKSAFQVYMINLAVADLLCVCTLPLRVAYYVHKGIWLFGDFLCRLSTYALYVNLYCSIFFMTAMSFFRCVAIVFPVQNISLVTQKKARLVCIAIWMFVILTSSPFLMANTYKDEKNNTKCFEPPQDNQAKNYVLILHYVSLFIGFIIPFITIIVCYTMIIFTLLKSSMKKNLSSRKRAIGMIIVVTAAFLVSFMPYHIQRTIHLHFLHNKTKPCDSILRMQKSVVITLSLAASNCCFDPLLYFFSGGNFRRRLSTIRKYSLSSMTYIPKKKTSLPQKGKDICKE
Experiment: Antagonism of LTD4-evoked contraction of isolated guinea pig ileum (single concentration)
Format: cell-based
Conditions: pure LTD4, 5 minute exposure, read-out: Percent Inhibition of LTD4 evoked ileal contractions; for inhibition at 1 µM: 1 × 10^-6 M; for inhibition at 3 µM: 3 × 10^-6 M; for inhibition at 10 µM: 1 × 10^-5 M
Description: Male, Hartley guinea pigs weighing 200-450 grams were killed by decapitation. A section of terminal ileum was removed, the lumen cleaned, and the tissue divided into 2.5 cm. segments. The ilea were mounted in 10 ml. tissue baths containing Krebs-bicarbonate solution of the following composition in mmoles/liter: KCl, 4.6; CaCl2.2H2 O, 1.2; KH2 PO4, 1.2; MgSO4.7H2 O, 1.2; NaCl, 118.2; NaHCO3, 24.8 and dextrose, 10.0. The bath fluid was maintained at 37° C. and aerated with 95 percent oxygen and 5 percent CO2. In addition, the buffer contained 1×10^-6 M atropine to reduce ileal spontaneous activity. In studies with crude SRS-A, 1×10^-6M pyrilamine was used to mitigate the actions of histamine present along with the biologically active leukotrienes. Isometric measurements were made with a Grass FTO3C force-displacement transducer and recorded on a Grass polygraph as change in grams of force. A passive force of 0.5 g. was applied to the tissues. After an appropriate equilibration period, single submaximal control responses to either SRS-A or pure LTD4 were obtained. Following a 5 minute exposure of the ileum to an experimental drug, the control concentration of SRS-A or LTD4 was added to the tissue bath. The response of the ileum to SRS-A or LTD4 in the presence of the drug was compared to the response in the absence of the drug.
*Compounds marked with an asterisk were tested using crude SRSA as the
ileumcontracting agent; all other compounds were tested using pure

| Compound | inhibition at 1 µM [%] | inhibition at 3 µM [%] | inhibition at 10 µM [%] |
| --- | --- | --- | --- |
| CCCc1c(OCCCCc2nnn[nH]2)ccc(C(C)=O)c1O [Example 8, 5-[4-(4-Acetyl-3-hydroxy-2-propylphenoxy)butyl]-tetrazole] | 89 | 100 |  |
| CCCc1c(OCCCCCCCCCCCCc2nnn[nH]2)ccc(C(C)=O)c1O [Example 14, 5-[12-(4-Acetyl-3-hydroxy-2-propylphenoxy)dodecyl]-tetrazole] | 22 | 47 |  |
| CCCc1c(OC(CCCCC(=O)O)c2ccc(Cc3ccccc3)cc2)ccc(C(C)=O)c1O (stereo not shown) [Example 15, 6-(4-Acetyl-3-hydroxy-2-propylphenoxy)-6-(4-benzylphenyl)hexanoic acid] |  |  | 37 |
| CC(=O)c1ccc(OC(CCCCC(=O)O)c2ccc(Cc3ccccc3)cc2)cc1O (stereo not shown) [Example 16, 6-(4-Acetyl-3-hydroxyphenoxy)-6-(4-benzylphenyl)hexanoic acid] |  | 70 | 86 |
| CC(=O)c1ccc(OC(CCCCC(=O)O)c2ccc(-c3ccccc3)cc2)cc1O (stereo not shown) [Example 18, 6-(4-Acetyl-3-hydroxyphenoxy)-6-(4-biphenyl)hexanoic acid] |  | 34 |  |
| CCCc1c(OC(CCCCC(=O)O)c2ccccc2)ccc(C(C)=O)c1O (stereo not shown) [Example 19, 6-(4-Acetyl-3-hydroxy-2-propylphenoxy)-6-phenylhexanoic acid] |  | 35 | 64 |
| CCCc1c(OCCCc2nnn[nH]2)ccc(C(C)=O)c1O [Example 23, 5-[3-(4-Acetyl-3-hydroxy-2-propylphenoxy)propyl]-tetrazole] | 15 |  |  |
| C=CCc1c(OCCCCCC(=O)O)ccc(C(C)=O)c1O [Example 26, 6-(4-Acetyl-3-hydroxy-2-allylphenoxy)-hexanoic acid] |  | 29 |  |
| CCCc1c(OCCCCCCC(=O)O)ccc(C(C)=O)c1O [Example 29, 7-(4-Acetyl-3-hydroxy-2-propylphenoxy)heptanoic acid] | 43 |  | 84 |
| CCCc1c(OCCCCCCCC(=O)O)ccc(C(C)=O)c1O [Example 30, 8-(4-Acetyl-3-hydroxy-2-propylphenoxy)octanoic acid] | 62 |  | 94 |
| CCCc1c(OCCCCCCCCCC(=O)O)ccc(C(C)=O)c1O [Example 32, 10-(4-Acetyl-3-hydroxy-2-propylphenoxy)decanoic acid] | 46 | 85 | 92 |
| CCCc1c(OCCCCCCCCCCC(=O)O)ccc(C(C)=O)c1O [Example 33, 11-(4-Acetyl-3-hydroxy-2-propylphenoxy)undecanoic acid] |  | 79 | 92 |
| CCCc1c(OCCCCCCN2CCOCC2)ccc(C(C)=O)c1O [Example 35, N-[6-(4-Acetyl-3-hydroxy-2-propylphenoxy)hexyl]morpholine hydrochloride] |  | 47 | 80 |
| CCCc1c(OCCCCCCN)ccc(C(C)=O)c1O [Example 36, 6-(4-Acetyl-3-hydroxy-2-propylphenoxy)hexylamine hydrochloride] | 26 | 42 |  |
| CCCc1c(OCCCCCCN2CCN(C)CC2)ccc(C(C)=O)c1O [Example 37, N-Methyl-N'-[6-(4-acetyl-3-hydroxy-2-propylphenoxy)hexyl]piperazine dihydrochloride] |  | 32 | 78 |
| CCCc1c(OCCCCCCN(C)C)ccc(C(C)=O)c1O [Example 38, N,N-Dimethyl-[6-(4-acetyl-3-hydroxy-2-propylphenoxy)hexyl]amine hydrochloride] |  | 30 | 60 |
| CCCc1c(OCCCCC(C)(C)c2nnn[nH]2)ccc(C(C)=O)c1O [Example 39, 5-[5-(4-Acetyl-3-hydroxy-2-propylphenoxy)-1,1-dimethylpentyl]-tetrazole] | 89 |  |  |
| CC(=O)c1ccc(OC(C)CCCCC(=O)O)cc1O (stereo not shown) [Example 41, 6-(4-Acetyl-3-hydroxyphenoxy)heptanoic acid] |  | 10 |  |
| CCCc1c(OCCCCCCO)ccc(C(C)=O)c1O [Example 42, 6-(4-Acetyl-3-hydroxy-2-propylphenoxy)-1-hexanol] |  | 46 | 74 |
| CCCc1c(OCCCCc2nnn[nH]2)ccc(C(=O)c2ccccc2)c1O [Example 43, 5-[4-(4-Benzoyl-3-hydroxy-2-propylphenoxy)butyl]-tetrazole] | 34 | 56 |  |
| CCCc1c(OCCCCC(C)(C)C(=O)OC)ccc(C(C)=O)c1O [Example 44, Methyl 6-(4-acetyl-3-hydroxy-2-propylphenoxy)-2,2-dimethylhexanoate] |  | 55 |  |
| CCCc1c(OCCCCC(C)(C)C(=O)O)ccc(C(C)=O)c1O [Example 45, 6-(4-Acetyl-3-hydroxy-2-propylphenoxy)-2,2-dimethylhexanoic acid] |  | 73 | 94 |
| COC(=O)C(C)(C)CCCCOc1ccc(C(C)=O)c(O)c1 [Example 46, Methyl 6-(4-acetyl-3-hydroxyphenoxy)-2,2-dimethylhexanoate] |  |  | 23 |
| CC(=O)c1ccc(OCCCCC(C)(C)C(=O)O)cc1O [Example 47, 6-(4-Acetyl-3-hydroxyphenoxy)-2,2-dimethylhexanoic acid] |  |  | 22 |

The next lines start with the values.

| inhibition at 1 µM [%] | inhibition at 3 µM [%] | inhibition at 10 µM [%] | Compound |
| --- | --- | --- | --- |
|  |  | 34 | CCCc1c(OC(CCC)CCCCC(=O)O)ccc(C(C)=O)c1O (stereo not shown) [Example 48, 6-(4-Acetyl-3-hydroxy-2-propylphenoxy)nonanoic acid] |
|  |  | 18 | CCCC(CCCCC(=O)O)Oc1ccc(C(C)=O)c(O)c1 (stereo not shown) [Example 49, 6-(4-Acetyl-3-hydroxyphenoxy)nonanoic acid] |
| 66 |  |  | CCCc1c(OCCCCCc2nnnn2CC(=O)O)ccc(C(C)=O)c1O [Example 50, 5-(1H)-[5-(4-Acetyl-3-hydroxy-2-propylphenoxy)pentyl]-1-tetrazolylacetic acid] |
| 69 |  |  | CCCc1c(OCCCCCc2nnn(CC(=O)O)n2)ccc(C(C)=O)c1O [Example 51, 5-(2H)-[5-(4-acetyl-3-hydroxy-2-propylphenoxy)pentyl]-2-tetrazolylacetic acid] |
| 38 |  |  | CCCc1c(OCCCCCc2nnnn2C)ccc(C(C)=O)c1O [Example 52, 1-Methyl-5-(1H)-[5-(4-acetyl-3-hydroxy-2-propylphenoxy)pentyl]-tetrazole] |
| 40 | 56 |  | CCCc1c(OCCCCC(=O)OCC)ccc(C(C)=O)c1O [Example 54, Ethyl 5-(4-acetyl-3-hydroxy-2-propylphenoxy)pentanoate] |
| 28 | 59 |  | CCCc1c(OCCCCC(N)=O)ccc(C(C)=O)c1O [Example 55, 5-(4-Acetyl-3-hydroxy-2-propylphenoxy)pentanoic acid amide] |
| 17 | 42 |  | CCCc1c(OCCCCC(=O)N(C)C)ccc(C(C)=O)c1O [Example 56, N,N-dimethyl-5-(4-acetyl-3-hydroxy-2-propylphenoxy)pentanoic acid amide] |
| 28 | 55 |  | CCCc1c(OCCCSC(=N)N)ccc(C(C)=O)c1O [Example 60, S-[3-(4-Acetyl-3-hydroxy-2-propylphenoxy)propyl]-isothiuronium hydrobromide] |
| 28 | 70 |  | CCCc1c(OCCCCC(=O)NO)ccc(C(C)=O)c1O [Example 61, 5-(4-Acetyl-3-hydroxy-2-propylphenoxy)pentanehydroxamic acid] |
| 95 |  | 100 | CCCc1c(OCCCCCCSc2nn[nH]n2)ccc(C(C)=O)c1O [Example 71, 5-[6-(4-Acetyl-3-hydroxy-2-propylphenoxy)hexanethio]-tetrazole] |
| 100 |  |  | CCCc1c(OCCCCCCCSc2nn[nH]n2)ccc(C(C)=O)c1O [Example 72, 5-[7-(4-Acetyl-3-hydroxy-2-propylphenoxy)heptanethio]-tetrazole] |
